Active and inactive are the calls of the source. No cut-off for these calls is given here.
Assays:
Mus musculus [1] = assay: Antitumor activity against intestinal polyp in APCMin/+ mouse model at 150 ppm administered with diet from week 6 to week 18 relative to control; format: functional
Mus musculus [2] = assay: Toxicity in APCMin/+ mouse model assessed as change in body weight at 150 ppm administered with diet from week 6 to week 18 relative to control; format: organism-based; conditions: in vivo, po
Mus musculus [3] = assay: Antitumor activity against intestinal polyp in APCMin/+ mouse model assessed as reduction in intestinal polyp formation with size >2 mm at 150 ppm administered with diet from week 6 to week 18 relative to control; format: functional
Cancer cell lines = assay: Antitumor activity against colon cancer cells in APCMin/+ mouse model assessed as inhibition of colon tumor formation at 150 ppm administered with diet from week 6 to week 18 relative to control; format: functional

In the case of `NCCNC(=O)c1cc2ccccc2[nH]c1=O`, the Activity (Mus musculus [1]) is reported as “inactive”, the Activity (Mus musculus [2]) is reported as “Non-toxic” and the Activity (Mus musculus [3]) is reported as “Active”. The Activity (Cancer cell lines) was “inactive”.

From ChEMBL document CHEMBL3120151, “Synthesis and in vivo evaluation of N-ethylamino-2-oxo-1,2-dihydro-quinoline-3-carboxamide for inhibition of intestinal tumorigenesis in APC(Min/+) mice” (Bioorg Med Chem Lett, 2014)
